# Data from article PMC12362582, “Linker Methylation as a Strategy to Enhance PROTAC Oral Bioavailability: Insights from Molecular Properties and Conformational Analysis” (Journal of Medicinal Chemistry, 2025).
# Like-named read-outs stand apart in the source and are kept apart here.
# Columns and labels:
# [1] = EPSA (supercritical fluid chromatography) and EPSA-to-TPSA ratio; format: physicochemical; conditions: for EPSA: supercritical fluid chromatographic (SFC) system, SFC-based polarity descriptor
# Text: (§1) Polarity was quantified by Δlog k W ^IAM, a descriptor obtained from the experimental log k W ^IAM and BRlogD. In addition, we also measured EPSA (Table S2), another polarity descriptor based on a supercritical fluid chromatographic (SFC) system widely used in drug discovery.
# (§2) Chameleonicity was monitored by Chamelogk, a recent chromatographic descriptor able to capture environment-dependent conformational changes by monitoring different mobile phase compositions on the PLRP-S column. All PROTACs behave as strong chameleons (Chamelogk > 0.6). Additionally, we calculated the EPSA-to-TPSA ratio (ETR), a recently proposed index for polarity masking. The ETR values remained consistently around 0.7 across the series, supporting the notion that conformational effects contribute uniformly to the polarity profiles of the analyzed PROTACs.
# [2] = log kW IAM (IAM.PC.DD2 column) and derived Δlog kW IAM polarity; format: physicochemical; conditions: for log kW^IAM: IAM.PC.DD2 column, extrapolated, pH 7; for Δlog kW^IAM: log kW IAM – clog kW IAM (clog = 0.92*BRlogD – 1.03)
# Protocol: (§3) Lipophilicity was assessed using three chromatographic descriptors, each simulating distinct aspects of membrane environments. BRlogD is a surrogate of the octanol/water distribution coefficient (log D oct) reflecting a general partitioning across biological membranes. Log k W ^IAM implements an Immobilized Artificial Membrane (IAM) column which provides a lipophilicity index in an environment resembling the membrane phospholipids. Finally, log k′80 PLRP-S reflects retention in a hydrophobic polymeric column environment, mimicking the nonpolar core of lipid bilayers, and acts as a surrogate for the toluene/water partition coefficient (log D tol). Lipophilicity remained within a moderate range across all systems.
# as §1
# (§4) All chromatographic measurements were performed using the Thermo Scientific Inc. HPLC DIONEX Ultimate 3000 connected to an RS diode array and the Chromeleon 7.2.10 software (www.thermofisher.com). 1.5 mL HPLC vials, 9 mm PP screw caps, and high-performance ergonomic single-channel variable volume pipettors from VWR Signature were used. A Eutech pH Meter 2700 was used to regulate the pH of each buffer and sample (www.fishersci.com). For all the chromatographic descriptors, the mobile phase consisted of an acetonitrile solution (ACN) and 20 mM AAB, pH 7. Moreover, 10 μL was set as the volume of injection of compound concentrations ranging from 50 to 100 μg/mL in ACN/buffer mixtures. One mL/min was chosen as the isocratic flow rate and 30 °C as the oven temperature. However, each chromatographic system (RP) had its own conditions:
# This descriptor required the use of an IAM.PC.DD2 (300 Å, 10 μm, 10 cm × 4.6 mm) column from REGIS. The organic solvent of the eluent, ACN, was modified at various percentages (from 10 to 50%, v/v) and the retention times were measured. Next, the capacity factor (log k′) values were calculated as described elsewhere and the equation represented by the five was obtained. Lastly the extrapolated value at 100% ACN (0% aqueous buffer) or log k w ^IAM was obtained. Caffeine, carbamazepine, ketoprofen, theobromine, and toluene were checked daily as gold standards. ,
# This polarity descriptor was calculated using the equation Δlog k w ^IAM = log k w ^IAM – clog k w ^IAM. Clog k w ^IAM, defined as the log k w ^IAM for neutral compounds with PSA = 0, has been correlated to BRlogD by our group with the equation: clog k w ^IAM= 0.92*BRlogD – 1.03.
# [3] = Bidirectional Caco-2 permeability and efflux ratio assay; format: in vitro ADME; conditions: human
# [4] = Chamelogk chromatographic chameleonicity (PLRP-S column); format: physicochemical; conditions: Exp. log k'100 – Ext. log k'100, PLRP-S column
# Text: as §2
# Using the PLRP-S column, we assessed the RT of each PROTAC in the data set at four different mobile phase conditions (50, 60, 70 and 100% MeCN) and calculated the capacity factor at each mobile phase composition. First, we constructed a linear trend using the first three mobile phase conditions (50, 60, and 70% MeCN) that respected a linear behavior and calculated the extrapolated value at 100% MeCN (Ext. log k′100). Chamelogk was then calculated with the following equation: Chamelogk = Exp. log k′100 – Ext. log k′100.
# [5] = log k'80 PLRP-S chromatographic lipophilicity; format: physicochemical; conditions: 80% ACN / 20% 20 mM ammonium acetate, pH 7.0
# Protocol: Molecular properties have been quantified with physicochemical descriptors of ionization, lipophilicity, polarity and chameleonicity (see Methods). First, ionization of the 11 PROTACs (basic center, Figure a) was analyzed by potentiometry. However, standard pK a measurements in water were limited by solubility and precipitation issues (data not shown). Therefore, to assess the dominant species at physiological pH we adopted a chromatographic method previously published by some of us. Briefly, we monitored the trend of the capacity factor named log k′80 PLRP-S at different pHs (acid-neutral-basic). […] The most neutral feature of the considered PROTACs in in line with the main role played by the neutral species in crossing membranes.
# as §3, §4
# Log k′80 PLRP-S and Chamelogk, on the other hand, were measured using the PLRP-S polymeric reversed-phase column (100 Å, 5 μm, 50 × 4.6 mm) from Agilent (www.agilent.com). The assessment of log k′80 PLRP-S involved the measurement and calculation of the capacity factor of each sample at an eluent composition of 80% ACN and 20% 20 mM ammonium acetate at pH 7.0. In addition, acetone, caffeine, phenol and a mixture of uracile, acetophenone and toluene were used as gold standards. Moreover, log k′80 PLRP-S was also assessed at different pHs (2, 7 and 12) using 0.1% formate buffer, 0.1% ammonium acetate, and 10 mM triethylamine.
# [6] = with Zosuquidar (P-gp inhibitor), concentration not given, Caco-2, in the presence of a Pgp inhibitor (Zosuquidar), read-out: ER (+Pgp inhibitor)
# [7] = Caco-2, in the absence of an inhibitor, read-out: ER (Caco-2 efflux ratio)
SMILES,EPSA [1] [A^2],log kW^IAM [2],Δlog kW^IAM [2],"efflux ratio at 1 μM [3, 6]",Chamelogk [4],log k'80 PLRP-S [5],ETR (EPSA-to-TPSA ratio) [1],"efflux ratio at 1 μM [3, 7]",Δlog kW^IAM ([2]; listed as A5–1),Δlog kW^IAM ([2]; listed as A5–4)
Cc1ncsc1-c1ccc([C@H](CCCN2CCC(c3ccc4c(c3)n(C3CCCC3)c3nc(=O)c5c(Br)cccc5n43)CC2)NC(=O)[C@@H]2C[C@@H](O)CN2C(=O)[C@@H](NC(=O)C2(F)CC2)C(C)(C)C)cc1 [A3-1],133,2.01,0.93,1.8,>2,0.07,–,–,–,–
Cc1ncsc1-c1ccc([C@H](C[C@H](C)CN2CCC(c3ccc4c(c3)n(C3CCCC3)c3nc(=O)c5c(Br)cccc5n43)CC2)NC(=O)[C@@H]2C[C@@H](O)CN2C(=O)[C@@H](NC(=O)C2(F)CC2)C(C)(C)C)cc1 [A3-2],130,2.21,0.21,0.9,>2,0.18,0.68,9,–,–
Cc1ncsc1-c1ccc([C@H](C[C@@H](C)CN2CCC(c3ccc4c(c3)n(C3CCCC3)c3nc(=O)c5c(Br)cccc5n43)CC2)NC(=O)[C@@H]2C[C@@H](O)CN2C(=O)[C@@H](NC(=O)C2(F)CC2)C(C)(C)C)cc1 [A3-3],130,2.29,0.26,0.4,>2,0.32,0.70,5.1,–,–
Cc1ncsc1-c1ccc([C@H](CCCCCN2CCC(c3ccc4c(c3)n(C3CCCC3)c3nc(=O)c5c(Br)cccc5n43)CC2)NC(=O)[C@@H]2C[C@@H](O)CN2C(=O)[C@@H](NC(=O)C2(F)CC2)C(C)(C)C)cc1 [A5-1],136,3.00,1.77,1.6,>2,0.03,0.75,24.2,> 1.5,–
Cc1ncsc1-c1ccc([C@H](CC[C@H](C)CCN2CCC(c3ccc4c(c3)n(C3CCCC3)c3nc(=O)c5c(Br)cccc5n43)CC2)NC(=O)[C@@H]2C[C@@H](O)CN2C(=O)[C@@H](NC(=O)C2(F)CC2)C(C)(C)C)cc1 [A5-2],133,2.37,0.85,1.6,>2,0.22,0.73,7.5,–,–
Cc1ncsc1-c1ccc([C@H](CC[C@@H](C)CCN2CCC(c3ccc4c(c3)n(C3CCCC3)c3nc(=O)c5c(Br)cccc5n43)CC2)NC(=O)[C@@H]2C[C@@H](O)CN2C(=O)[C@@H](NC(=O)C2(F)CC2)C(C)(C)C)cc1 [A5-3],133,2.38,0.83,1,>2,0.28,0.73,3.3,–,–
Cc1ncsc1-c1ccc([C@@H](CC[C@@H](C)CCN2CCC(c3ccc4c(c3)n(C3CCCC3)c3nc(=O)c5c(Br)cccc5n43)CC2)NC(=O)[C@@H]2C[C@@H](O)CN2C(=O)[C@@H](NC(=O)C2(F)CC2)C(C)(C)C)cc1 [A5-4],134,3.31,1.8,0.9,>2,0.14,0.73,–,–,> 1.5
Cc1ncsc1-c1ccc([C@H](COCCN2CCC(c3ccc4c(c3)n(C3CCCC3)c3nc(=O)c5c(Br)cccc5n43)CC2)NC(=O)[C@@H]2C[C@@H](O)CN2C(=O)[C@@H](NC(=O)C2(F)CC2)C(C)(C)C)cc1 [B-1],128,1.97,0.61,3,>2,0.05,0.69,–,–,–
Cc1ncsc1-c1ccc([C@H](CO[C@H](C)CN2CCC(c3ccc4c(c3)n(C3CCCC3)c3nc(=O)c5c(Br)cccc5n43)CC2)NC(=O)[C@@H]2C[C@@H](O)CN2C(=O)[C@@H](NC(=O)C2(F)CC2)C(C)(C)C)cc1 [B-2],–,1.92,0.57,1.8,>2,0.05,0.68,–,–,–
Cc1ncsc1-c1ccc([C@H](CO[C@@H](C)CN2CCC(c3ccc4c(c3)n(C3CCCC3)c3nc(=O)c5c(Br)cccc5n43)CC2)NC(=O)[C@@H]2C[C@@H](O)CN2C(=O)[C@@H](NC(=O)C2(F)CC2)C(C)(C)C)cc1 [B-3],124,2.06,0.58,2.2,>2,0.08,0.68,23.9,–,–
Cc1ncsc1-c1ccc([C@H](COC(C)(C)CN2CCC(c3ccc4c(c3)n(C3CCCC3)c3nc(=O)c5c(Br)cccc5n43)CC2)NC(=O)[C@@H]2C[C@@H](O)CN2C(=O)[C@@H](NC(=O)C2(F)CC2)C(C)(C)C)cc1 [B-4],127,2.00,–,1.1,>2,0.11,0.67,31.3,–,–
